Assay [1] has as its target T1, CRF2R (Homo sapiens, UniProt Q13324).
T1 sequence (Q13324 1-411): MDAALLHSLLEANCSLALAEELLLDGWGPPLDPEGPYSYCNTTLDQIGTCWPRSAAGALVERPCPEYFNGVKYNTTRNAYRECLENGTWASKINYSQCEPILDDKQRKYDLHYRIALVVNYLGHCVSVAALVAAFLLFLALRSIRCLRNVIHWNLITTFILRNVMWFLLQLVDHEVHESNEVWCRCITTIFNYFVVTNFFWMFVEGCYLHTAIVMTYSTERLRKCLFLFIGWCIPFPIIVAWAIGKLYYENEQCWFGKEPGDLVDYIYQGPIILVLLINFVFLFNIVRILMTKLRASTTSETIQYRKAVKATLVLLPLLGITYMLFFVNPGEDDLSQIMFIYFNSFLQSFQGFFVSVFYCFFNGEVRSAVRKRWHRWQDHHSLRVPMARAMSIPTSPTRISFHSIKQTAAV
Description: CRF2R agonist activity (EC50 and Emax), called comparative CRF binding. As to conditions: CRF2R; read-out: CRF2R EC50. In kind it is cell-based. The method in brief:
(§1)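 CRE-reporter or direct cAMP, cells w/ single CRFR subtype (recombinant or CRF1R-disabled), peptide vs vehicle; background from other CRFR type subtracted.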

Assay [2] addresses T2, CRF1R (Homo sapiens, UniProt P34998).
T2 sequence (P34998 24-415): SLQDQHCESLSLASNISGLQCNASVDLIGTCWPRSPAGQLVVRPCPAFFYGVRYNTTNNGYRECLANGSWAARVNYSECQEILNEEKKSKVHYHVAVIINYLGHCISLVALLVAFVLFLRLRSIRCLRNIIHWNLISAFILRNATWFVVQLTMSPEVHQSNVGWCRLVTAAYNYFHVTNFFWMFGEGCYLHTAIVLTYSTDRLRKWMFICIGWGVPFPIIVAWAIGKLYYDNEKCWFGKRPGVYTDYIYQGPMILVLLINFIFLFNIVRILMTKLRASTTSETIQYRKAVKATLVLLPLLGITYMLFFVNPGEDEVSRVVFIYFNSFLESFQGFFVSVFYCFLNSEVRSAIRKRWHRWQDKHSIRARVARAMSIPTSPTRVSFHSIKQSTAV
Description: CRF1R agonist activity (EC50 and Emax), called comparative CRF binding. The settings on record: CRF1R; read-out: CRF1R EC50. In kind it is cell-based. The gist of the method: as §1

Ends that are not written are not given here. Peptide text beside a SMILES is read from it. Bounds are passed on as bounds.

For `CC[C@H](C)[C@H](NC(=O)[C@H](C)NC(=O)[C@H](CC(N)=O)NC(=O)[C@H](CCC(N)=O)NC(=O)[C@H](CCC(=O)O)NC(=O)[C@H](C)NC(=O)[C@H](CCCNC(=N)N)NC(=O)[C@H](CCC(=O)O)NC(=O)[C@H](CCCNC(=N)N)NC(=O)[C@H](CCC(N)=O)NC(=O)[C@H](CO)NC(=O)[C@H](CCC(N)=O)NC(=O)[C@@H](NC(=O)[C@H](CCCNC(=N)N)NC(=O)[C@H](C)NC(=O)[C@H](CC(C)C)NC(=O)[C@H](CCC(=O)O)NC(=O)[C@H](CC(C)C)NC(=O)[C@H](CC(C)C)NC(=O)[C@@H](NC(=O)[C@H](CCCNC(=N)N)NC(=O)[C@H](CC(C)C)NC(=O)[C@H](CC(C)C)NC(=O)[C@H](Cc1ccccc1)NC(=O)[C@H](Cc1ccccc1)NC(=O)[C@@H]1CCCN1C(=O)[C@H](CC(C)C)NC(=O)[C@H](CC(=O)O)NC(=O)[C@@H](NC(=O)[C@H](CO)NC(=O)[C@H](CC(C)C)NC(=O)[C@H](CO)NC(=O)[C@@H]1CCCN1C(=O)[C@H](CC(N)=O)NC(=O)[C@@H](N)CC(=O)O)[C@@H](C)CC)[C@@H](C)O)[C@@H](C)O)C(=O)N[C@H](C(=O)N[C@@H](Cc1ccccc1)C(=O)N[C@@H](C)C(=O)N[C@@H](CO)C(=O)N[C@H](C(N)=O)C(C)C)[C@@H](C)CC` [compound 184] (H-DNPSLSIDLPFFLLRTLLELARTQSQRERAEQNAIIFASV-NH2; N-terminus assumed), the figures for the EC50 in assay [1] and in assay [2] were 3.72 nM and 486 nM, respectively.
For “SQEPPISLDLPFYLLREVLEMTKADQLAQQAHSNRKLLDIA-NH2 [compound 96]”, the concentration giving a half-maximal response (EC50) in assay [1] and in assay [2] was not below 100 nM in each case.
Consider “SQEPPISLDLPTQLLREVLEMTKADQLAQQAHSNRKLLDIA-NH2 [compound 105]”, for which the half-maximal effective concentration (EC50) in assay [1] and in assay [2] was not below 100 nM in each case.
Take “SQEPPISLDLTFGLLREVLEMTKADQLAQQAHSNRKLLDIA-NH2 [compound 88]”: the concentration giving a half-maximal response (EC50) in assay [1] and in assay [2] was not below 100 nM throughout.
With “SQEPPISLDLPIHLLREVLEMTKADQLAQQAHSNRKLLDIA-NH2 [compound 94]”, the EC50 in assay [1] and in assay [2] was not below 100 nM throughout.
With “SEEPPISLDVPIGLLQEVLEMARAEQLAQQAHSNRKLMEII-NH2 [compound 162]”, the EC50 in assay [1] and in assay [2] was more than 100 nM each time.
Take `CC[C@H](C)[C@H](N)C(=O)N[C@H](C(=O)N[C@@H](CC(C)C)C(=O)N[C@@H](CO)C(=O)N[C@@H](CC(C)C)C(=O)N[C@@H](CC(=O)O)C(=O)N[C@H](C(=O)N1CCC[C@H]1C(=O)N[C@H](C(=O)NCC(=O)N[C@@H](CC(C)C)C(=O)N[C@@H](CC(C)C)C(=O)N[C@@H](CCC(N)=O)C(=O)N[C@H](C(=O)N[C@@H](CC(C)C)C(=O)N[C@@H](CC(C)C)C(=O)N[C@@H](CCC(=O)O)C(=O)N[C@@H](CCC(N)=O)C(=O)N[C@@H](C)C(=O)N[C@@H](C)C(=O)N[C@@H](CCCNC(=N)N)C(=O)N[C@@H](C)C(=O)N[C@@H](C)C(=O)N[C@@H](CCCNC(=N)N)C(=O)N[C@@H](CCC(=O)O)C(=O)N[C@@H](CCC(N)=O)C(=O)N[C@@H](C)C(=O)N[C@H](C(=O)N[C@H](C(=O)N[C@@H](CC(N)=O)C(=O)N[C@@H](C)C(=O)N[C@@H](CCCNC(=N)N)C(=O)N[C@H](C(=O)N[C@@H](CC(C)C)C(=O)N[C@@H](C)C(=O)N[C@@H](CCCNC(=N)N)C(=O)N[C@H](C(N)=O)C(C)C)[C@@H](C)CC)[C@@H](C)O)[C@@H](C)O)[C@@H](C)CC)[C@@H](C)CC)C(C)C)C(C)C` [compound 135] (H-IVLSLDVPIGLLQILLEQAARAAREQATTNARILARV-NH2): the EC50 in assay [1] and in assay [2] was more than 100 nM in each case.
As to `CC[C@H](C)[C@H](NC(=O)[C@H](C)NC(=O)[C@H](CC(N)=O)NC(=O)[C@H](CCC(N)=O)NC(=O)[C@H](CCC(=O)O)NC(=O)[C@H](C)NC(=O)[C@H](CCCNC(=N)N)NC(=O)[C@H](CCC(=O)O)NC(=O)[C@H](CCCNC(=N)N)NC(=O)[C@H](CCC(N)=O)NC(=O)[C@H](CO)NC(=O)[C@H](CCC(N)=O)NC(=O)[C@@H](NC(=O)[C@H](CCCNC(=N)N)NC(=O)[C@H](C)NC(=O)[C@H](CC(C)C)NC(=O)[C@H](CCC(=O)O)NC(=O)[C@H](CC(C)C)NC(=O)[C@H](CC(C)C)NC(=O)[C@@H](NC(=O)[C@H](CCCNC(=N)N)NC(=O)[C@H](CC(C)C)NC(=O)[C@H](CC(C)C)NC(=O)[C@H](Cc1ccc(O)cc1)NC(=O)[C@@H](NC(=O)[C@@H]1CCCN1C(=O)[C@H](CC(C)C)NC(=O)[C@H](CC(=O)O)NC(=O)[C@@H](NC(=O)[C@H](CO)NC(=O)[C@H](CC(C)C)NC(=O)[C@H](CO)NC(=O)[C@@H]1CCCN1C(=O)[C@H](CC(N)=O)NC(=O)[C@@H](N)CC(=O)O)[C@@H](C)CC)[C@@H](C)O)[C@@H](C)O)[C@@H](C)O)C(=O)N[C@H](C(=O)N[C@@H](Cc1ccccc1)C(=O)N[C@@H](C)C(=O)N[C@@H](CO)C(=O)N[C@H](C(N)=O)C(C)C)[C@@H](C)CC` [compound 173] (H-DNPSLSIDLPTYLLRTLLELARTQSQRERAEQNAIIFASV-NH2), the EC50 in assay [1] was not below 100 nM; in assay [2], not below 1000 nM.
Regarding “SQEPPISLDLPFELLREVLEMTKADQLAQQAHSNRKLLDIA-NH2 [compound 97]”, the EC50 in assay [1] and in assay [2] was not below 100 nM each time.
Consider “SQEPPISLDLPFGLLREVLEMTKADQLAQQAHSNRKLLDIA-NH2 [compound 103]”, for which the 50% effective concentration (EC50) in assay [1] and in assay [2] was not below 100 nM throughout.
As for “SQEPPISLDLTIHLLREVLEMTKADQLAQQAHSNRKLLDIA-NH2 [compound 87]”, the EC50 in assay [1] and in assay [2] was not below 100 nM each time.
On to “SQEPPISLDLPFQLLREVLEMTKADQLAQQAHSNRKLLDIA-NH2 [compound 91]”, for which the 50% effective concentration (EC50) in assay [1] and in assay [2] was not below 100 nM throughout.

One may read the EC50 as the concentration needed to bring the measured effect to its halfway point.
